The values below come from patent US20140094465A1, “Compounds as S-Nitrosoglutathione Reductase Inhibitors” (N30 PHARMACEUTICALS, INC., priority 2011, published 2014).

Each structure is given as a SMILES string. pIC50: −log10 of the molar value. Where two headings read alike, the source gives them in different places.

This assay addresses T1, S-nitrosoglutathione reductase (GSNOR) (Homo sapiens, UniProt P11766).
T1 construct: made in house; host or cells: E. coli
Kind of assay: GSNOR assay (inhibition of GSNOR activity, NADH absorbance at 340 nm). It is filed as biochemical. The procedure: Various compounds were tested in vitro for their ability to inhibit GSNOR activity.
GSNOR expression and purification is described in Biochemistry 2000, 39, 10720-10729.
Pre-cultures were grown from stabs of a GSNOR glycerol stock in 2XYT media containing 100 ug/ml ampicillin after an overnight incubation at 37° C. […] GSNOR expression was induced with 0.1% arabinose in an overnight incubation at 20° C.
E. coli cell paste was lysed by nitrogen cavitation and the clarified lysate purified by Ni affinity chromatography on an AKTA FPLC (Amersham Pharmacia). The column was eluted in 20 mM Tris pH 8.0/250 mM NaCl with a 0-500 mM imidazole gradient. Eluted GSNOR fractions containing the Smt-GSNOR fusion were digested overnight with Ulp-1 at 4° C. to remove the affinity tag then re-run on the Ni column under the same conditions. GSNOR was recovered in the flowthrough fraction and for crystallography is further purified by Q-Sepharose and Heparin flowthrough chromatography in 20 mM Tris pH 8.0, 1 mM DTT, 10 uM ZnSO4.
GSNOR assay: GSNO and enzyme/NADH Solutions are made up fresh each day. The solutions are filtered and allowed to warm to room temperature. GSNO solution: 100 mM NaPO4 (pH 7.4), 0.480 mM GSNO. 396 μL of GSNO Solution is added to a cuvette followed by 8 μL of test compound in DMSO (or DMSO only for full reaction control) and mixed with the pipette tip. Compounds to be tested are made up at a stock concentration of 10 mM in 100% DMSO. 2 fold serial dilutions are done in 100% DMSO. 8 μL of each dilution are added to an assay so that the final concentration of DMSO in the assay is 1%. The concentrations of compounds tested range from 100 to 0.003 μM. Enzyme/NADH solution: 100 mM NaPO4 (pH 7.4), 0.600 mM NADH, 1.0 μg/mL GSNO Reductase. 396 μL of the Enzyme/NADH solution is added to the cuvette to start the reaction. The cuvette is placed in the Cary 3E UV/Visible Spectrophotometer and the change in 340 nm absorbance/min at 25° C. is recorded for 3 minutes. The assays are done in triplicate for each compound concentration. IC50's for each compound are calculated using the standard curve analysis in the Enzyme Kinetics Module of SigmaPlot.
Final assay conditions: 100 mM NaPO4, pH 7.4, 0.240 mM GSNO, 0.300 mM NADH, 0.5 μg/mL GSNO Reductase, and 1% DMSO. Final volume: 800 μL/cuvette.

The mark [1] stands for this setting: GSNOR inhibitor activity, Tables 1-6, read-out: IC50 range.
Where [2] appears, read: Table 7, GSNOR inhibition, IC50 range class a/b/c, read-out: IC50.
The mark [3] stands for this setting: Table 8, GSNOR inhibition, IC50 range class a/b/c, read-out: IC50.

T1 sequence (P11766 whole entry): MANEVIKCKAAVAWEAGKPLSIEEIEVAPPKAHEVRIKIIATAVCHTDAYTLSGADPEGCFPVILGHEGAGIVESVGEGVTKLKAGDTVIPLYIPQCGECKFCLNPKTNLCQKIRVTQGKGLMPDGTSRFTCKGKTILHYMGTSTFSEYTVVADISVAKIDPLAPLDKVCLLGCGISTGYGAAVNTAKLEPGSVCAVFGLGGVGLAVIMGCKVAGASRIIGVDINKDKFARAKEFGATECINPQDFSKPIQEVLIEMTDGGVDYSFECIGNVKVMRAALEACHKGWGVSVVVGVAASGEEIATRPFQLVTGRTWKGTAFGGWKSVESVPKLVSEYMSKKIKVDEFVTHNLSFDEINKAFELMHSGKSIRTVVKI

Turning to `O=C(O)c1ccc(-c2cc(F)c3cc(O)ccc3n2)cc1` [Compound I-26, 4-(4-fluoro-6-hydroxyquinolin-2-yl)benzoic acid], the pIC50 under setting [1] is > 7.00. Take `O=C(NO)c1ccc(-c2c(C(F)(F)F)oc3cc(O)ccc3c2=O)cc1` [IV-37]: under setting [1], the pIC50 was 6.00 to 7.00. For the compound `COc1c(-c2ccc(C(=O)O)cc2)ccc2cc(O)ccc12` [III-24, 4-(6-hydroxy-1-methoxynaphthalen-2-yl)benzoic acid], the pIC50 under setting [1] was > 7.00. Still for that read-out and setting: next, `CN(C)c1cc(C(=O)O)ccc1-c1ccc2cc(O)ccc2c1` [III-5]: > 7.00. For `O=C(O)c1ccc(-c2ccc3cc(O)ccc3n2)cc1O` [Compound I-60, 2-hydroxy-4-(6-hydroxyquinolin-2-yl)benzoic acid], the pIC50 under setting [1] is > 7.00. For the compound `O=C(O)c1ccc(-c2cc(F)c3cc(O)ccc3c2)c(F)c1` [III-38, 3-fluoro-4-(4-fluoro-6-hydroxynaphthalen-2-yl)benzoic acid], the pIC50 under setting [1] was > 7.00. With `Oc1ccc2nc(-c3ccc(-c4nn[nH]n4)cc3)cc(Cl)c2c1` [Compound I-11], the pIC50 under setting [1] was > 7.00. Consider `CC(C(=O)c1ccc(O)cc1O)c1ccc(C(=O)O)cc1` (stereo not drawn) [VI-12, 4-(1-(2,4-dihydroxyphenyl)-1-oxopropan-2-yl)benzoic acid], for which, under setting [1], the pIC50 is 5.00 to 6.00.

Turning to `O=C(O)c1cnc(-c2ccc3cc(O)ccc3c2)cn1` [III-8], the pIC50 under setting [1] was 6.00 to 7.00. `COc1cc(C(=O)O)ccc1-c1ccc2cc(O)ccc2n1` [Compound I-14]: under setting [1], the pIC50 is > 7.00.

In the case of `O=C(O)c1ccc(-c2cc3ccc(O)cc3cc2F)c(Cl)c1` [III-21, 3-chloro-4-(3-fluoro-6-hydroxynaphthalen-2-yl)benzoic acid], the pIC50 under setting [1] is > 7.00. Still for that read-out and setting: next, `O=C(O)c1ccc(-c2ccc3cc(O)ccc3c2)nn1` [III-11]: 5.00 to 6.00. For the compound `Oc1ccc2nc(C(F)(F)F)c(-c3ccc(-c4nnn[nH]4)cc3)nc2c1` [II-16], the pIC50 under setting [1] is 6.00 to 7.00. Regarding `O=C(O)c1ccc(-c2cnc(-c3ccc(O)c(F)c3)s2)s1` [VII-10, 5-(2-(3-fluoro-4-hydroxyphenyl)thiazol-5-yl)thiophene-2-carboxylic acid], the pIC50 under setting [2] is > 7.00. As for `O=c1nc(-c2ccc(-c3ccc4cc(O)ccc4n3)cc2)[nH]s1` [Compound I-29], under setting [1], the pIC50 was 6.00 to 7.00. Same read-out and setting: next, `O=C(O)c1ccc(-c2ccc3c(F)c(O)ccc3n2)c(Cl)c1` [Compound I-57]: > 7.00. As to `O=C(O)c1ccc(-c2cc3ccc(O)cc3cn2)c(F)c1` [II-24, 3-fluoro-4-(7-hydroxyisoquinolin-3-yl)benzoic acid], the pIC50 under setting [1] was > 7.00. Regarding `Cc1cc(C(=O)O)ccc1-c1ccc2c(F)c(O)ccc2c1` [III-33], the pIC50 under setting [1] was > 7.00. As for `O=C(O)c1ccc(CC(=O)c2cc(F)c(O)cc2F)c(F)c1` [VI-7, 4-(2-(2,5-difluoro-4-hydroxyphenyl)-2-oxoethyl)-3-fluorobenzoic acid], the pIC50 under setting [1] was 6.00 to 7.00. With `O=c1[nH]c(-c2ccc(-c3c(C(F)(F)F)oc4cc(O)ccc4c3=O)c(F)c2)no1` [IV-41], the pIC50 under setting [1] was > 7.00. In the case of `O=C(O)c1ccc(-c2ccc3cc(O)ccc3n2)cc1F` [Compound I-10], the pIC50 under setting [1] was > 7.00.

As to `O=C(O)c1ccc(-c2csc(-c3ccc(O)c(F)c3)n2)s1` [VII-3, 5-(2-(3-fluoro-4-hydroxyphenyl)thiazol-4-yl)thiophene-2-carboxylic acid], the pIC50 under setting [2] was > 7.00.

As to `Cc1cc2cc(O)ccc2nc1-c1ccc(-c2nnn[nH]2)cc1` [Compound I-2], the negative-log IC50 (pIC50) under setting [1] is > 7.00.

With `O=c1nc(-c2ccc(-c3ccc4cc(O)ccc4n3)cc2F)[nH]o1` [Compound I-20], the pIC50 under setting [1] is > 7.00. As to `COc1cc(-c2ccc3cc(O)ccc3c2)ccc1C(=O)O` [III-34, 4-(6-hydroxynaphthalen-2-yl)-2-methoxybenzoic acid], the pIC50 under setting [1] was 6.00 to 7.00. Regarding `Oc1ccc2nc(-c3ccc(-c4nnn[nH]4)cc3)sc2c1` [VIII-5, 2-(4-(1H-tetrazol-5-yl)phenyl)benzo[d]thiazol-6-ol], the pIC50 under setting [3] was 6.00 to 7.00. On to `CC(C)c1oc2cc(O)ccc2c(=O)c1Oc1ccc(C(=O)O)cc1` [Compound V-3, 4-(7-hydroxy-2-isopropyl-4-oxo-4H-chromen-3-yloxy)benzoic acid], for which the pIC50 under setting [1] was 5.00 to 6.00. As to `O=C(O)c1ccc(-c2c(C(F)(F)F)oc3cc(O)ccc3c2=O)cc1F` [IV-14], the pIC50 under setting [1] is > 7.00. As to `O=C(O)c1ccc(CSc2ccc(O)cc2)c(F)c1` [VI-24, 3-fluoro-4-(((4-hydroxyphenyl)thio)methyl)benzoic acid], the pIC50 under setting [1] is 6.00 to 7.00. Turning to `O=C(O)C1CCN(c2ccc3cc(O)ccc3n2)CC1` [Compound I-5], under setting [1], the pIC50 was 5.00 to 6.00. For the compound `Cc1sc2cc(O)ccc2c(=O)c1-c1ccc(-c2nnn[nH]2)cc1` [IV-34], the pIC50 under setting [1] was > 7.00. Take `O=C(O)c1ccc(-c2cc(F)c3cc(O)ccc3n2)c(F)c1` [Compound I-40, 3-fluoro-4-(4-fluoro-6-hydroxyquinolin-2-yl)benzoic acid]: the pIC50 under setting [1] is > 7.00. Turning to `O=C1c2ccc(O)cc2CCN1[C@H]1CC[C@H](C(=O)O)CC1` [VIII-16, (trans)-4-(6-hydroxy-1-oxo-3,4-dihydroisoquinolin-2(1H)-yl)cyclohexanecarboxylic acid], under setting [3], the pIC50 was 5.00 to 6.00. As to `O=C(O)c1ccc(-c2ccc3c(Br)c(O)ccc3n2)cc1` [Compound I-45, 4-(5-bromo-6-hydroxyquinolin-2-yl)benzoic acid], the pIC50 under setting [1] is 6.00 to 7.00. Take `O=C(O)c1ccc(NCc2ccc(O)cc2F)c(F)c1` [VI-33, 3-fluoro-4-((2-fluoro-4-hydroxybenzyl)amino)benzoic acid]: the pIC50 under setting [1] is 5.00 to 6.00. Take `O=C(O)C1CCC(c2ccc3cc(O)ccc3n2)CC1` (stereo not drawn) [Compound I-6]: the pIC50 under setting [1] was 6.00 to 7.00. With `O=C(O)c1ccc(Nc2c(C(F)(F)F)oc3cc(O)ccc3c2=O)cc1` [Compound V-15, 4-(7-hydroxy-4-oxo-2-(trifluoromethyl)-4H-chromen-3-ylamino)benzoic acid], the pIC50 under setting [1] is 5.00 to 6.00.

As to `O=C(O)c1ccc(-c2cc(=O)c3cc(O)ccc3[nH]2)c(Cl)c1` [VIII-9, 3-chloro-4-(6-hydroxy-4-oxo-1,4-dihydroquinolin-2-yl)benzoic acid], the pIC50 under setting [3] is 5.00 to 6.00. With `O=C(O)c1ccc(-c2ncc3cc(O)ccc3n2)cc1` [II-1], the pIC50 under setting [1] is > 7.00. Regarding `O=C(O)c1ccc(-n2ccc3cc(O)ccc3c2=O)cc1` [VIII-3, 4-(6-hydroxy-1-oxoisoquinolin-2(1H)-yl)benzoic acid], under setting [3], the pIC50 is > 7.00. In the case of `O=C(O)c1ccc(NCc2ccc(O)c(F)c2F)c(F)c1` [VI-32, 4-((2,3-difluoro-4-hydroxybenzyl)amino)-3-fluorobenzoic acid], the pIC50 under setting [1] is 6.00 to 7.00.

Turning to `O=C(O)c1ccc(-c2ccc(-c3ccc(O)cc3)cc2)s1` [VII-21, 5-(4′-hydroxy-[1,1′-biphenyl]-4-yl)thiophene-2-carboxylic acid], under setting [2], the pIC50 is 6.00 to 7.00. Regarding `O=C(O)c1ccc(/C(=C\C(F)(F)F)C(=O)c2ccc(O)cc2O)cc1` [VI-17, (E)-4-(1-(2,4-dihydroxyphenyl)-4,4,4-trifluoro-1-oxobut-2-en-2-yl)benzoic acid], under setting [1], the pIC50 is > 7.00. On to `O=C(O)c1ccc(C[S+]([O-])c2ccc(O)cc2)c(F)c1` (stereo not drawn) [VI-25, 3-fluoro-4-(((4-hydroxyphenyl)sulfinyl)methyl)benzoic acid], for which the pIC50 under setting [1] is 6.00 to 7.00.

With `Cc1cc(C(=O)O)ccc1-c1c(C(F)(F)F)oc2cc(O)ccc2c1=O` [IV-43], the pIC50 under setting [1] is > 7.00.

Turning to `Oc1ccc2cc(-c3ccc(-c4nnn[nH]4)cc3)ccc2c1` [III-18], the pIC50 under setting [1] was > 7.00. Take `O=C(O)c1ccc(-c2csc(-c3ccc(O)cc3)n2)s1` [VII-9, 5-(2-(4-hydroxyphenyl)thiazol-4-yl)thiophene-2-carboxylic acid]: under setting [2], the pIC50 was > 7.00.

As for `O=c1nc(-c2ccc(-c3ccc4cc(O)ccc4n3)cc2)s[nH]1` [Compound I-39], the pIC50 under setting [1] is 6.00 to 7.00. As for `O=C(O)c1ccc(-c2nnc3cc(O)ccc3n2)c(F)c1` [II-20], the pIC50 under setting [1] is > 7.00. As for `O=C(O)c1ccc(-c2csc(-c3ccc(O)cc3)n2)cc1` [VII-2, 4-(2-(4-hydroxyphenyl)thiazol-4-yl)benzoic acid], under setting [2], the pIC50 is 6.00 to 7.00. Take `O=c1[nH]c(-c2ccc(-c3c(C(F)(F)F)oc4cc(O)ccc4c3=O)cc2)ns1` [IV-33]: the pIC50 under setting [1] is > 7.00.
